Laboratory results as given in PMC5510229, “BCAT1 controls metabolic reprogramming in activated human macrophages and is associated with inflammatory diseases” (Nature Communications, 2017).

Key:
[1] = Blood brain barrier crossing
From the text: NCOMMS-16-23550_Point by Point Responses Papathanassiu et al.
6. It would be interesting to know why the half -life in animals is very low. Again, is the drug metabolized by the organism? (see also point 3).
Authors’ reply. The pharmacokinetic study that determined the half -life of the drug in mice […]
ERG240 is completely absorbed and not subject to first -pass metabolism. Since the drug is structurally a leucine analogue, it is likely to be uptaken by the ubiquitously expressed amino acid transporter LAT1. In that light, the low half -life of the drug is related to its complete and swift absorption by various sites rather to a phase I or II metabolic reaction. ERG240 is also […]
preferentially in the brain. […]
metabolism of the drug in human macrophages, please see the response to point 3, which […]
7. Leucine is degraded to acetyl -Coa and acetoacetate both fueling cellular acetyl -Coa pools. Does decreased activity of BCAT1 impact cellular acetyl -Coa and citrate levels? Itaconate synthesis is a sink for citrate and diverts carbon away from the TCA cycle. […]
have measured citrate levels in 4 donors following LPS and LPS + ERG240 treatment for 3 hours by GC-MS. […]
Itaconate levels measured by GC/MS were further confirmed in si-BCAT1 and si-Control MDMs from independent donors (n=4, left panel). […]

[2] = tested on: human monocyte-derived macrophages (hMDMs); assay: qRT-PCR / Western blot of activation markers in hMDMs; type: cell-based
[3] = tested on: mouse bone marrow derived macrophages (BMDMs); assay: BMDM transwell migration assay; type: cell-based, C57BL/6 mouse; conditions: 10 hours, 10% FBS as chemo-attractant
From the text: Figure 6 ERG240 treatment results in reduced macrophage infiltration in CIA and crescentic glomerulonephritis. (a) Inhibition of murine BMDM migration in vitro in the presence of different concentrations of ERG240 by transwell migration assay (left panel, results are presented as the average of four experiments). The drug had no effect on cell viability (right panel, results are presented as the average of three experiments). (b) IHC analysis of CIA joints for expression of F4/80. Representative images show F4/80+ cells (indicated with an arrow). F4/80+ cell quantification is shown on the right panel. (c) Representative images showing glomerular ED1 (rat CD68)-positive cells in ERG240 treated animals following NTN. Percentage of glomerular ED1-positive cell quantification is shown on the right panel. Error bars are s.e.m. […]
The migration of BMDMs was assessed using a modified Bo yden chamber methodology. […]
To determine the effect of ERG240 on the total number of BMDMs, cell s were plated onto a 96-well plate at a density of 5,000 cells per well in complete media and allowed to adhere overnight. The cells were then exposed to various drug concentrations overnight and the cell population was quantified with CyQuant Cell Proliferation kit (Life Technologies) using triplicates, in two independent experiments. For hMDMs, cell viability was determined using the alamarBlue® Assa y (Invitrogen). […]

[4] = LPS 100 ng/ml + ERG240 20 mM, 3 h, qRT-PCR

CC(=O)C(C)CCC(=O)O (stereo not shown) [ERG240]
accumulation in the brain [1]: does not accumulate
crossing of the blood brain barrier [1]: capable of crossing the blood brain barrier
NOS2 expression levels [2, 4]: significantly reduced
TNF expression levels [2, 4]: significantly reduced
IL-1β levels, long-term exposure ([2]; LPS + ERG240 20 mM, 24 h, Western blot): reduced IL-1β levels
IRG1 expression in TNF-stimulated human macrophages ([2]; TNF 2 ng/ml, ERG240 20 mM, 8 h): comparable inhibitory effect
IC50 [3]: 5 to 10 mM
